Test results: ChEMBL document CHEMBL3421625, “Discovery and optimization of novel antagonists to the human neurokinin-3 receptor for the treatment of sex-hormone disorders (Part I)” (J Med Chem, 2015)
In brackets after ≈: the same amount, converted by molar mass.

Tests used:
[1] = target: Cytochrome P450 2C9 (Homo sapiens, UniProt P11712); assay: Inhibition of CYP2C9 (unknown origin) by luciferase reporter assay in presence of NADPH regeneration system; type: ADME
[2] = target: Cytochrome P450 2C19 (Homo sapiens, UniProt P33261); assay: Inhibition of CYP2C19 (unknown origin) by luciferase reporter assay in presence of NADPH regeneration system
[3] = target: Cytochrome P450 2D6 (Homo sapiens, UniProt P10635); assay: Inhibition of CYP2D6 (unknown origin) by luciferase reporter assay in presence of NADPH regeneration system; type: ADME
[4] = Solubility of the compound in PBS buffer at pH 7.4 by shake-flask method; type: physicochemical
[5] = target: T1, Neuromedin-K receptor (Homo sapiens, UniProt P29371); assay: biochemical
T1 sequence (P29371 whole entry): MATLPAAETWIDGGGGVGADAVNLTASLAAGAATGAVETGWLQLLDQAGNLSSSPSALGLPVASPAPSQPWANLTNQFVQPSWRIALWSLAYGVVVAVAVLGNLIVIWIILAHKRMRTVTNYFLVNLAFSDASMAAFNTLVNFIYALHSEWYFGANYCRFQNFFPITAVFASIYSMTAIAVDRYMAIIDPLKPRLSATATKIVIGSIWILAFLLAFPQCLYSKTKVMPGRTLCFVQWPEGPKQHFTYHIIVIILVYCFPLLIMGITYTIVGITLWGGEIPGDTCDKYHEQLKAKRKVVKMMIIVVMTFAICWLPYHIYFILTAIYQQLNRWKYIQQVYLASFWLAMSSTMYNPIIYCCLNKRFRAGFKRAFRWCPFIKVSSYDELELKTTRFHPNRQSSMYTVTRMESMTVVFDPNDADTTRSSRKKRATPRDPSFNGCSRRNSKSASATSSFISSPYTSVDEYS
Description: Displacement of [3H]-SB222200 from recombinant human NK3R expressed in CHO cell membranes after 90 mins by scintillation counting analysis

[6] = Lipophilicity, log D of the compound at pH 7.4; type: physicochemical; conditions: buffer, read-out: logD
[7] = target: T1, Neuromedin-K receptor
[8] = target: Voltage-gated inwardly rectifying potassium channel KCNH2 (Homo sapiens, UniProt Q12809)
Description: Inhibition of human ERG expressed in HEK293 cells after 5 mins by patch-clamp assay

[9] = target: T2, Cytochrome P450 1A2 (Homo sapiens, UniProt P05177); assay: Inhibition of CYP1A2 (unknown origin) by luciferase reporter assay in presence of NADPH regeneration system; type: ADME
T2 sequence (P05177 whole entry): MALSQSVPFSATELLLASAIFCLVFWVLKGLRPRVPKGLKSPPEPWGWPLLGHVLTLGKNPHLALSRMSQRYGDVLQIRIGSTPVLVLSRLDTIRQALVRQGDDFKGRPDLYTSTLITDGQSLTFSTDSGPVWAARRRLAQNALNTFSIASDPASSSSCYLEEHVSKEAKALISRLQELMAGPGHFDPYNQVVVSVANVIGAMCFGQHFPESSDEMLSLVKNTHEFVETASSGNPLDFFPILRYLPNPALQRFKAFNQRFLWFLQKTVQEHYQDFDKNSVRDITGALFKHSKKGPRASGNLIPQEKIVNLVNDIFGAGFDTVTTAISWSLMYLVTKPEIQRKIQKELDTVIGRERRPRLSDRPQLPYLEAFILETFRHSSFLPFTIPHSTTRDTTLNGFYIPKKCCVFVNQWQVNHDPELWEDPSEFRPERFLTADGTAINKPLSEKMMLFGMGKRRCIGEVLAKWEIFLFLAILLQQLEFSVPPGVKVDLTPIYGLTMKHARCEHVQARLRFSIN

[10] = target: Cytochrome P450 3A4 (Homo sapiens, UniProt P08684); assay: Inhibition of CYP3A4 (unknown origin) by luciferase reporter assay in presence of NADPH regeneration system; type: ADME
[11] = Ratio of unbound drug level in brain to plasma in Sprague-Dawley rat at 1 mg/kg, iv measured at 60 mins; conditions: brain and plasma
[12] = Apparent permeability across apical to basolateral side in human Caco2 cells in presence of 0.1% bovine serum albumin; conditions: Caco-2
[13] = Fraction unbound in rat plasma at 5 uM after 4 hrs by equilibrium dialysis method; type: ADME, cell-free
[14] = in vivo; conditions: Sprague-Dawley, rat, iv, 1 mg/kg
Description: Volume of distribution at steady state in Sprague-Dawley rat at 1 mg/kg, iv by LC-MS/MS analysis

[15] = test system: Rattus norvegicus; assay: Unbound AUC in Sprague-Dawley rat at 3 mg/kg, po by LC-MS/MS analysis; type: ADME, organism-based; design: dose 3 mg/kg, route oral; conditions: in vivo
[16] = target: Substance-P receptor (Homo sapiens, UniProt P25103)
Description: Displacement of [3H]-Substance P from human NK1R after 90 mins by scintillation counting analysis

[17] = test system: Rattus norvegicus; assay: Unbound Cmax in Sprague-Dawley rat at 3 mg/kg, po by LC-MS/MS analysis; type: ADME, organism-based; design: dose 3 mg/kg, route oral; conditions: in vivo
[18] = in vivo; conditions: Sprague-Dawley, rat, po, 3 mg/kg
[19] = target: T3, NK-3 receptor (Macaca mulatta, UniProt Q2WGM0)
T3 sequence (Q2WGM0 whole entry): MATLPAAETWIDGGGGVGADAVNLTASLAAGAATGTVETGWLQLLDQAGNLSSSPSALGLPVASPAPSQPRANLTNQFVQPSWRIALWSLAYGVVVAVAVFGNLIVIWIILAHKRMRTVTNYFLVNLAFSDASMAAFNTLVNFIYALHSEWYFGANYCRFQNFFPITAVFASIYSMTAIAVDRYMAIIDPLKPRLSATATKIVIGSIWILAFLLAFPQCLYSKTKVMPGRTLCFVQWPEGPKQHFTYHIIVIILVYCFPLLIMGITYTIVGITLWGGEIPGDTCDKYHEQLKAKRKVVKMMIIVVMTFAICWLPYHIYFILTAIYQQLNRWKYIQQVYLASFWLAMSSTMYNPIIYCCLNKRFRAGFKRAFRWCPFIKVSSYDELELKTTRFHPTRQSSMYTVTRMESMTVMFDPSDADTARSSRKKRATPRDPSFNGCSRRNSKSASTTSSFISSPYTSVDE
Description: Displacement of [3H]-SB222200 from monkey NK3R after 90 mins by scintillation counting analysis

[20] = Fraction unbound in rat brain at 5 uM after 4 hrs by equilibrium dialysis method; type: ADME, tissue-based
[21] = Total systemic clearance in Sprague-Dawley rat at 1 mg/kg, iv by LC-MS/MS analysis; type: ADME, organism-based; design: dose 1 mg/kg, route intravenous; conditions: in vivo
[22] = in vivo; conditions: Sprague-Dawley, rat, iv, 1 mg/kg; remark: listed apart in the source
[23] = target: T4, Neuromedin-K receptor (Rattus norvegicus, UniProt P16177)
T4 sequence (P16177 whole entry): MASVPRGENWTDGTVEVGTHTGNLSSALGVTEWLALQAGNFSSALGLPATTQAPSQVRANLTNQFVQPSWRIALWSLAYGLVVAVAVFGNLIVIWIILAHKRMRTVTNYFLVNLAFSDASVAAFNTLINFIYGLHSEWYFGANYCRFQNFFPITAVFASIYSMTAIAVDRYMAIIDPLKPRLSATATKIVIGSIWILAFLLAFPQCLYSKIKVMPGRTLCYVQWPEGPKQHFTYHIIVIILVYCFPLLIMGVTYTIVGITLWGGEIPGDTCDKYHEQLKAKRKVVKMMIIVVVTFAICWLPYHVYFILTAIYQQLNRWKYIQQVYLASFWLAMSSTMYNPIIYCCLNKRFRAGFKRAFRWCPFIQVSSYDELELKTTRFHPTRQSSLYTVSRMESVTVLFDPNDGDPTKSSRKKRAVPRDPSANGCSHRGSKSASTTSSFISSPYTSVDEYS
Description: Displacement of [3H]-SB222200 from rat NK3R after 90 mins by scintillation counting analysis

[24] = Ratio of unbound drug level in brain to plasma in Sprague-Dawley rat at 1 mg/kg, iv measured at 10 mins; conditions: brain and plasma
[25] = Apparent permeability across basolateral to apical side in human Caco2 cells in presence of 0.1% bovine serum albumin; conditions: Caco-2
[26] = in vivo; conditions: Sprague-Dawley, rat, po, 3 mg/kg; remark: listed apart in the source
[27] = target: Kappa-type opioid receptor (Homo sapiens) (UniProt P41145); assay: Inhibition of KOR (unknown origin) at 10 uM relative to control
[28] = test system: Rattus norvegicus; assay: Unbound AUC in Sprague-Dawley rat at 1 mg/kg, iv by LC-MS/MS analysis; type: ADME, organism-based; design: dose 1 mg/kg, route intravenous; conditions: in vivo
[29] = target: T5, Substance-K receptor (Homo sapiens, UniProt P21452); assay: Displacement of [125I]-neurokinin A from human NK2R after 90 mins by scintillation counting analysis
T5 sequence (P21452 whole entry): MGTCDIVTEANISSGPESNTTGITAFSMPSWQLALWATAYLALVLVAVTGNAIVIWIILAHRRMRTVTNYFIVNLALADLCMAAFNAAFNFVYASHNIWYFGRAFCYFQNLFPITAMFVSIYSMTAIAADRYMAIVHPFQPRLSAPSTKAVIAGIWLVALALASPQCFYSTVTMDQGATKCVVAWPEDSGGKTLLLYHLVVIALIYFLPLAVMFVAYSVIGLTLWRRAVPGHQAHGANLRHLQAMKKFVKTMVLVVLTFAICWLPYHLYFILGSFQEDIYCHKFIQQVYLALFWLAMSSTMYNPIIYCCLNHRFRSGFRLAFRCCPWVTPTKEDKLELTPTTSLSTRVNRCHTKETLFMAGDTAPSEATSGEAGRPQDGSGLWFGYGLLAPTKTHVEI

[30] = target: T5, Substance-K receptor; assay: Displacement of [125I]NKA from human NK2R expressed in CHO cell membranes after 90 mins by scintillation counting analysis

Cytochrome P450 2D6, sequence (P10635 whole entry): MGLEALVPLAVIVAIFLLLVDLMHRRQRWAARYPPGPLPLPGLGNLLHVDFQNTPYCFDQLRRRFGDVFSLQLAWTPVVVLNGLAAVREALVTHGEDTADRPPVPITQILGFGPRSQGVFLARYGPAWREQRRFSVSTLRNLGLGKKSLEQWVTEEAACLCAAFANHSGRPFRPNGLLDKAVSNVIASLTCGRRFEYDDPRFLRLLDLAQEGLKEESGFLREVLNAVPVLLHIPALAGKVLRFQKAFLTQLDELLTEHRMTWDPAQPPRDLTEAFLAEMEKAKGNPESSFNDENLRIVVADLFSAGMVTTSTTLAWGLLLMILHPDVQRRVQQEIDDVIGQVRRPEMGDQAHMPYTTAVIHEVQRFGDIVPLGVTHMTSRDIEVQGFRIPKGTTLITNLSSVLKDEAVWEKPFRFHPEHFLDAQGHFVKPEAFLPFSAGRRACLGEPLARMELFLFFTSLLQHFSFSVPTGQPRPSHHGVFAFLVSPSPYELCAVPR
Cytochrome P450 2C19, sequence (P33261 whole entry): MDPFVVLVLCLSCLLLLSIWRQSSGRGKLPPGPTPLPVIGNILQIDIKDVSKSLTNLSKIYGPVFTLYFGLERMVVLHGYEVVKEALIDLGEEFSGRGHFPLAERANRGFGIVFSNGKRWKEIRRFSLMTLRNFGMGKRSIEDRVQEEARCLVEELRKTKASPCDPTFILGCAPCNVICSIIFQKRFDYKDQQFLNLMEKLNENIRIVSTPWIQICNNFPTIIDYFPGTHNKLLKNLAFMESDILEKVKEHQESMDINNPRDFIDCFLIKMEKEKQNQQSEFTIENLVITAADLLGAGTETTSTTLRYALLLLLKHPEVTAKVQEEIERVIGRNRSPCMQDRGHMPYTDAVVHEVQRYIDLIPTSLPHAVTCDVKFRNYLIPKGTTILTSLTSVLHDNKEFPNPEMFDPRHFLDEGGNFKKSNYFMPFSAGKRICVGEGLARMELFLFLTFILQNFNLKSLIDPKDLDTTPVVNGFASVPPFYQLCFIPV
Cytochrome P450 2C9, sequence (P11712 whole entry): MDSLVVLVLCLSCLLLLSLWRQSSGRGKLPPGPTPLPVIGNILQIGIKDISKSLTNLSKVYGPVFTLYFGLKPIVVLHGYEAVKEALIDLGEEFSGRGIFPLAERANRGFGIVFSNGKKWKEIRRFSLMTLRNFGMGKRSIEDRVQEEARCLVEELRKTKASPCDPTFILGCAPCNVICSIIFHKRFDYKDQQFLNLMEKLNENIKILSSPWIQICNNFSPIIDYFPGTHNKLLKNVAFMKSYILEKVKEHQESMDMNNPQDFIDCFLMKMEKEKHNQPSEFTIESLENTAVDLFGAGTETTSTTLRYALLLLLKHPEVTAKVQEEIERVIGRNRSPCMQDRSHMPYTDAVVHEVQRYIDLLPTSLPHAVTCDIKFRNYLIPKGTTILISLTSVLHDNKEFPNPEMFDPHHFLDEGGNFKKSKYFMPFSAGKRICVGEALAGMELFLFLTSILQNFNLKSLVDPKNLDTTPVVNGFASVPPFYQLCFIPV
Cytochrome P450 3A4, sequence (P08684 whole entry): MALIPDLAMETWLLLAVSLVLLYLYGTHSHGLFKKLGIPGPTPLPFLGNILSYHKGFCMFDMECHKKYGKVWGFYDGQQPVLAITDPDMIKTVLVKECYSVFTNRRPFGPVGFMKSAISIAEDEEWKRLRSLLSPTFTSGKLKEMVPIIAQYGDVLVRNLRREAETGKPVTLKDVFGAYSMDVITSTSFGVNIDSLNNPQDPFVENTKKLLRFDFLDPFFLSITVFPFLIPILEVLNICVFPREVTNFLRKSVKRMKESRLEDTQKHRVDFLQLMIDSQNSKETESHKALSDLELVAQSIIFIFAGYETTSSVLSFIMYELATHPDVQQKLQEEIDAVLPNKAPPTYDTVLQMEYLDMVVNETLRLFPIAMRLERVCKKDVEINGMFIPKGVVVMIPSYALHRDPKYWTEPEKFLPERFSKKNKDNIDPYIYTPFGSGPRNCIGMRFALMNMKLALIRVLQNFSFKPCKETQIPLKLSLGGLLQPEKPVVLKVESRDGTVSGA
Kappa-type opioid receptor (Homo sapiens), sequence (P41145 whole entry): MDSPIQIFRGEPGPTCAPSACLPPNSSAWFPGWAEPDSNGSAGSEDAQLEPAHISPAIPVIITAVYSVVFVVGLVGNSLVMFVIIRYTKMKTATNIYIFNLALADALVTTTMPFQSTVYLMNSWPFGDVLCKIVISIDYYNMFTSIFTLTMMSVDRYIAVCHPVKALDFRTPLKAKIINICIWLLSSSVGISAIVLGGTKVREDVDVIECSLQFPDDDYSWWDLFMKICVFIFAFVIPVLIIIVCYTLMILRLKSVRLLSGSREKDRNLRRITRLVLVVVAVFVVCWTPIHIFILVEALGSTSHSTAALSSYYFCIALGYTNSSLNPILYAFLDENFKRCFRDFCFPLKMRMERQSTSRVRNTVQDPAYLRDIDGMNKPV
Substance-P receptor, sequence (P25103 whole entry): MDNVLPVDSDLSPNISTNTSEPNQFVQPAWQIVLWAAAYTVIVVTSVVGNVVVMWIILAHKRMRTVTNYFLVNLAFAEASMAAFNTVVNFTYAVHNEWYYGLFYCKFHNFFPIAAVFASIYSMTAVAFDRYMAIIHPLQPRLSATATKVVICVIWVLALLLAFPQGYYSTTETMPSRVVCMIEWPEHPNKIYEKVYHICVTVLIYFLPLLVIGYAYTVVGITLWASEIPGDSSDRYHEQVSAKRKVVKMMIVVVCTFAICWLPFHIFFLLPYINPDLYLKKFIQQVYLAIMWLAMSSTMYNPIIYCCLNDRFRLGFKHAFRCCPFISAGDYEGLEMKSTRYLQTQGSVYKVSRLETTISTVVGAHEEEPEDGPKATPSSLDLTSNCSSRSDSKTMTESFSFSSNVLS
Voltage-gated inwardly rectifying potassium channel KCNH2, sequence (Q12809 whole entry): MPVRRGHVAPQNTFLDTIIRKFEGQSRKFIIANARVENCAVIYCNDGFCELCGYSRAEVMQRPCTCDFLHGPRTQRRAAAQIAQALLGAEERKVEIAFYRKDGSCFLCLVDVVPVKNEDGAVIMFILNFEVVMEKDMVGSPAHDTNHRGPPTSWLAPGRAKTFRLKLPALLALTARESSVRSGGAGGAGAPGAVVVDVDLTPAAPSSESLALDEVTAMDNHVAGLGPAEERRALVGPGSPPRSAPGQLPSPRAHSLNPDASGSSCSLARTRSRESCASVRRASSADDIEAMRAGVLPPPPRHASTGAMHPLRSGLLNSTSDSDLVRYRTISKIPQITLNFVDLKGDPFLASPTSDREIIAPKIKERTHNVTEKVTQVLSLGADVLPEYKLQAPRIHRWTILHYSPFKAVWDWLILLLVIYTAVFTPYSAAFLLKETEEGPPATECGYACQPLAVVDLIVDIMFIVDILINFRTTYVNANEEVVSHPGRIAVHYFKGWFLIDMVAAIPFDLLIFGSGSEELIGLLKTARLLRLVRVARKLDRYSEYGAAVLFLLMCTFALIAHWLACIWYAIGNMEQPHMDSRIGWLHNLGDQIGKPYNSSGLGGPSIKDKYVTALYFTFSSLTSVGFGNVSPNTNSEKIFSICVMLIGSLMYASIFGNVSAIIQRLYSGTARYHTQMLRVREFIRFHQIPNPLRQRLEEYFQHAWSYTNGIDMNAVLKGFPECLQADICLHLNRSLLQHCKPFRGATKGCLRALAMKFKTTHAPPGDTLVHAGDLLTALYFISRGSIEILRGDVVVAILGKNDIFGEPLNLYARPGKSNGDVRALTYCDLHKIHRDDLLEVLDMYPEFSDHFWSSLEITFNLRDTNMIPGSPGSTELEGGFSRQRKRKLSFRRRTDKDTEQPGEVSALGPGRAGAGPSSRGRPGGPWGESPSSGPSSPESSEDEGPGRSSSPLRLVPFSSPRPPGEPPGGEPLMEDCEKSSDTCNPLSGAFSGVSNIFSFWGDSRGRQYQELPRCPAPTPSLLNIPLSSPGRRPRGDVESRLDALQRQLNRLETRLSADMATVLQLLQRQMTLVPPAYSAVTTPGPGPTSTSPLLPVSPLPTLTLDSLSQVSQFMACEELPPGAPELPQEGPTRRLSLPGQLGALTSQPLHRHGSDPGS

Row | IC50 [1] [µM] | IC50 [2] [µM] | IC50 [3] [µM] | solubility thermodynamic [4] [µM] | Ki [5] [µM] | logD [6] | IC50 [7] [µM] | IC50 [9] [µM] | IC50 [10] [µM] | SMILES | Kp uu at 1 h [11] | Papp A→B [12] [×10⁻⁶ cm/s] | fraction unbound at 4 h, 5 µM [13] | Vd [14] [L/kg] | fAUC [15] [µM·min] | fCmax [17] [nM] | bioavailability [18] [%] | Ki [19] [µM] | fraction unbound at 4 h, 5 µM [20] | clearance [21] [mL/min/kg] | half-life [22] [h] | other results
1 | 19 | 15 | > 100 | 172 (≈ 70.1 µg/mL) | 0.0794 | 2.9 | 0.0794 | 19 | 30 | Cc1nc(-c2nnc3n2CCN(C(=O)c2ccc(-c4cccs4)cc2)C3)cs1 |  |  |  |  |  |  |  |  |  |  |  | IC50 [8]: 27 µM
2 | 14 | 22 | 65 | 119 (≈ 51.6 µg/mL) | 0.00316 | 3.3 | 0.00398 | 81 | 43 | CC(C)c1nc(-c2nnc3n2CCN(C(=O)c2ccc(-c4cccs4)cc2)[C@@H]3C)co1 | 0.2 | 46.4 | 0.036 | 2.6 | 13.6 | 58.7 | 49 | 0.00631 | 0.016 | 8.2 | 3.5 | Ki [16]: 7.94 µM; Ki [23]: 0.032 µM; Kp uu at 10 min [24]: 0.2; Papp B→A [25]: 43.8 ×10⁻⁶ cm/s; Tmax [26]: 1.13 h; inhibition [27]: 41%; fAUC [28]: 9.3 µM·min; Ki [29]: 10 µM
3 |  |  |  |  |  |  |  |  |  | CSCC[C@H](NC(=O)[C@H](CC(C)C)NC(=O)CNC(=O)[C@H](Cc1ccccc1)N(C)C(=O)[C@H](Cc1ccccc1)NC(=O)[C@H](CC(=O)O)NC(=O)CCC(=O)O)C(N)=O [SENKTIDE] |  |  |  |  |  |  |  |  |  |  |  | Ki [30]: > 10 µM

Row | SMILES | IC50 [1] [µM] | IC50 [2] [µM] | IC50 [3] [µM] | solubility thermodynamic [4] [µM] | Ki [5] [µM] | logD [6] | IC50 [7] [µM] | IC50 [9] [µM] | IC50 [10] [µM] | Kp uu at 1 h [11] | Papp A→B [12] [×10⁻⁶ cm/s] | fraction unbound at 4 h, 5 µM [13] | Vd [14] [L/kg] | fAUC [15] [µM·min] | fCmax [17] [nM] | bioavailability [18] [%] | Ki [19] [µM] | fraction unbound at 4 h, 5 µM [20] | clearance [21] [mL/min/kg] | half-life [22] [h] | other results
4 | Cc1noc(-c2nnc3n2CCN(C(=O)c2ccc(-c4cccs4)cc2)[C@@H]3C)n1 | 40 | 54 | > 100 | 185 (≈ 75.2 µg/mL) | 0.0251 | 2.2 | 0.0251 | 32 | 55 | 0.4 | 57.4 | 0.108 | 1 | 46.3 | 272 | 66 | 0.0251 | 0.084 | 11.3 | 1.03 | Ki [23]: 0.116 µM; Kp uu at 10 min [24]: 0.6; Papp B→A [25]: 60.4 ×10⁻⁶ cm/s; Tmax [26]: 0.583 h; inhibition [27]: 23%; fAUC [28]: 23.3 µM·min
